# Literature values, collected in EP0553294B1, “THE MANUFACTURE OF COMPOSITIONS FOR THE TREATMENT OF CELL PRO[…]” (AMGEN INC., priority 1990, dated 1992).
# Tested on: Kaposi's Sarcoma
# Settings: administered alone; general statement, no test described
smiles,measurement,value
"Cc1cn([C@H]2C[C@H](N=[N+]=[N-])[C@@H](CO)O2)c(=O)[nH]c1=O [AZT, zidovudine]",effectiveness on Kaposi's Sarcoma,not effective
